From ChEMBL document CHEMBL3734723, “Synthesis and anticancer activity of 6-heteroarylcoumarins” (2015)

Columns and labels:
Type in all cases: functional
A549 = assay: Growth inhibition of human A549 cells incubated for 48 hrs by sulforhodamine B assay; conditions: A549, 48 h; for CC50: read-out: LC50 (the source's name)
[1] = Growth inhibition of human HOP92 cells incubated for 48 hrs by sulforhodamine B assay; conditions: HOP-92, 48 h; for CC50: read-out: LC50 (the source's name)
NCI-H226 = assay: Growth inhibition of human NCI-H226 cells incubated for 48 hrs by sulforhodamine B assay; conditions: NCI-H226, 48 h; for CC50: read-out: LC50 (the source's name)
NCI-H23 [2] = assay: Growth inhibition of human NCI-H23 cells incubated for 48 hrs by sulforhodamine B assay; conditions: NCI-H23, 48 h; for CC50: read-out: LC50 (the source's name)
NCI-H460 = assay: Growth inhibition of human NCI-H460 cells incubated for 48 hrs by sulforhodamine B assay; conditions: NCI-H460, 48 h; for CC50: read-out: LC50 (the source's name)
[3] = Growth inhibition of human HCC2998 cells incubated for 48 hrs by sulforhodamine B assay; conditions: HCC 2998, 48 h; for CC50: read-out: LC50 (the source's name)
HT-29 = assay: Growth inhibition of human HT-29 cells incubated for 48 hrs by sulforhodamine B assay; conditions: HT-29, 48 h; for CC50: read-out: LC50 (the source's name)
[4] = Growth inhibition of human SF268 cells incubated for 48 hrs by sulforhodamine B assay; conditions: SF-268, 48 h; for CC50: read-out: LC50 (the source's name)
[5] = Growth inhibition of human SNB19 cells incubated for 48 hrs by sulforhodamine B assay; conditions: SNB-19, 48 h; for CC50: read-out: LC50 (the source's name)
Malme-3M [6] = assay: Growth inhibition of human MALME-3M cells incubated for 48 hrs by sulforhodamine B assay; conditions: for CC50: read-out: LC50 (the source's name)
M14 = assay: Growth inhibition of human M14 cells incubated for 48 hrs by sulforhodamine B assay; conditions: M14, 48 h; for CC50: read-out: LC50 (the source's name)
SK-MEL-2 = assay: Growth inhibition of human SK-MEL-2 cells incubated for 48 hrs by sulforhodamine B assay; conditions: SK-MEL-2, 48 h; for CC50: read-out: LC50 (the source's name)
SK-MEL-5 = assay: Growth inhibition of human SK-MEL-5 cells incubated for 48 hrs by sulforhodamine B assay; conditions: SK-MEL-5, 48 h; for CC50: read-out: LC50 (the source's name)
[7] = Growth inhibition of human IGROV1 cells incubated for 48 hrs by sulforhodamine B assay; conditions: IGROV-1, 48 h; for CC50: read-out: LC50 (the source's name)
[8] = Growth inhibition of human OVCAR3 cells incubated for 48 hrs by sulforhodamine B assay; conditions: OVCAR-3, 48 h; for CC50: read-out: LC50 (the source's name)
[9] = Growth inhibition of human PC3 cells incubated for 48 hrs by sulforhodamine B assay; conditions: PC-3, 48 h; for CC50: read-out: LC50 (the source's name)
MCF7 = assay: Growth inhibition of human MCF7 cells incubated for 48 hrs by sulforhodamine B assay; conditions: MCF7, 48 h; for CC50: read-out: LC50 (the source's name)
T47D = assay: Growth inhibition of human T47D cells incubated for 48 hrs by sulforhodamine B assay; conditions: for CC50: read-out: LC50 (the source's name)
[10] = Growth inhibition of human melanoma cells after 48 hrs by sulforhodamine B assay; conditions: Melanoma cell; for CC50: read-out: LC50 (the source's name)
[11] = Growth inhibition of human ovarian cancer cells after 48 hrs by sulforhodamine B assay; conditions: Cancer cell lines; for CC50: read-out: LC50 (the source's name)
[12] = Growth inhibition of human renal cancer cells after 48 hrs by sulforhodamine B assay; conditions: Cancer cell lines; for CC50: read-out: LC50 (the source's name)
[13] = Growth inhibition of human prostate cancer cells after 48 hrs by sulforhodamine B assay; conditions: Cancer cell lines; for CC50: read-out: LC50 (the source's name)
K562 = assay: Cytotoxicity against human K562 cells assessed as cell growth at 10 uM incubated for 48 hrs by sulforhodamine B assay; conditions: K562, 48 h, read-out: Activity
[14] = Cytotoxicity against human UACC62 cells assessed as cell growth at 10 uM incubated for 48 hrs by sulforhodamine B assay; conditions: UACC-62, 48 h, read-out: Activity
[15] = Cytotoxicity against human MOLT4 cells assessed as cell growth at 10 uM incubated for 48 hrs by sulforhodamine B assay; conditions: MOLT-4, 48 h, read-out: Activity
[16] = Cytotoxicity against human HL-60(TB) cells assessed as cell growth at 10 uM incubated for 48 hrs by sulforhodamine B assay; conditions: HL-60, 48 h, read-out: Activity
EKVX = assay: Cytotoxicity against human EKVX cells assessed as cell growth at 10 uM incubated for 48 hrs by sulforhodamine B assay; conditions: read-out: Activity
NCI-H23 [17] = assay: Cytotoxicity against human NCI-H23 cells assessed as cell growth at 10 uM incubated for 48 hrs by sulforhodamine B assay; conditions: NCI-H23, 48 h, read-out: Activity
[18] = Cytotoxicity against human SNB75 cells assessed as cell growth at 10 uM incubated for 48 hrs by sulforhodamine B assay; conditions: SNB-75, 48 h, read-out: Activity
U-251 = assay: Cytotoxicity against human U251 cells assessed as cell growth at 10 uM incubated for 48 hrs by sulforhodamine B assay; conditions: U-251, 48 h, read-out: Activity
[19] = Cytotoxicity against human SF539 cells assessed as cell growth at 10 uM incubated for 48 hrs by sulforhodamine B assay; conditions: SF-539, 48 h, read-out: Activity
MDA-MB-435 = assay: Cytotoxicity against human MDA-MB-435 cells assessed as cell growth at 10 uM incubated for 48 hrs by sulforhodamine B assay; conditions: MDA-MB-435, 48 h, read-out: Activity
Malme-3M [20] = assay: Cytotoxicity against human MALME-3M cells assessed as cell growth at 10 uM incubated for 48 hrs by sulforhodamine B assay; conditions: read-out: Activity
[21] = Cytotoxicity against human IGROV1 cells assessed as cell growth at 10 uM incubated for 48 hrs by sulforhodamine B assay; conditions: IGROV-1, 48 h, read-out: Activity
SN12C = assay: Cytotoxicity against human SN12C cells assessed as cell growth at 10 uM incubated for 48 hrs by sulforhodamine B assay; conditions: read-out: Activity
[22] = Cytotoxicity against human […] cells assessed as cell growth at 10 uM incubated for 48 hrs by sulforhodamine B assay; conditions: read-out: Activity

Cc1cc(=O)oc2c(C)c(O)c(-c3ccnc(N)n3)cc12
GI50 (A549): 3.03 µM | TGI (A549): > 100 µM | CC50 (A549): > 100 µM | GI50 [1]: 19.4 µM | TGI [1]: 93.9 µM | CC50 [1]: > 100 µM | GI50 (NCI-H226): 9.84 µM | TGI (NCI-H226): > 100 µM | CC50 (NCI-H226): > 100 µM | GI50 (NCI-H23 [2]): 46 µM | TGI (NCI-H23 [2]): > 100 µM | CC50 (NCI-H23 [2]): > 100 µM | GI50 (NCI-H460): 2.44 µM | TGI (NCI-H460): > 100 µM | CC50 (NCI-H460): > 100 µM | GI50 [3]: > 100 µM | TGI [3]: > 100 µM | CC50 [3]: > 100 µM | GI50 (HT-29): 6.72 µM | TGI (HT-29): > 100 µM | CC50 (HT-29): > 100 µM | GI50 [4]: 12.3 µM | TGI [4]: > 100 µM | CC50 [4]: > 100 µM | GI50 [5]: 35.8 µM | TGI [5]: > 100 µM | CC50 [5]: > 100 µM | GI50 (Malme-3M [6]): > 100 µM | TGI (Malme-3M [6]): > 100 µM | CC50 (Malme-3M [6]): > 100 µM | GI50 (M14): > 100 µM | TGI (M14): > 100 µM | CC50 (M14): > 100 µM | GI50 (SK-MEL-2): 88.1 µM | TGI (SK-MEL-2): > 100 µM | CC50 (SK-MEL-2): > 100 µM | GI50 (SK-MEL-5): 3.56 µM | TGI (SK-MEL-5): > 100 µM | CC50 (SK-MEL-5): > 100 µM | GI50 [7]: 15.8 µM | TGI [7]: > 100 µM | CC50 [7]: > 100 µM | GI50 [8]: 37.7 µM | TGI [8]: > 100 µM | CC50 [8]: > 100 µM | GI50 [9]: > 100 µM | TGI [9]: > 100 µM | CC50 [9]: > 100 µM | GI50 (MCF7): 2.61 µM | TGI (MCF7): > 100 µM | CC50 (MCF7): > 100 µM | GI50 (T47D): 5 µM | TGI (T47D): > 100 µM | CC50 (T47D): > 100 µM | GI50 [10]: 68.1 µM | TGI [10]: > 100 µM | CC50 [10]: > 100 µM | GI50 [11]: 42.5 µM | TGI [11]: > 100 µM | CC50 [11]: > 100 µM | GI50 [12]: 10.6 µM | TGI [12]: > 100 µM | CC50 [12]: > 100 µM | GI50 [13]: > 100 µM | TGI [13]: > 100 µM | CC50 [13]: > 100 µM | growth at 10 µM (K562): 46.5% | growth at 10 µM [14]: 51.5% | growth at 10 µM [15]: -44.7% | growth at 10 µM [16]: -0.65% | growth at 10 µM (EKVX): 46.7% | growth at 10 µM (NCI-H23 [17]): 68.3% | growth at 10 µM [18]: 33.8% | growth at 10 µM (U-251): 56.3% | growth at 10 µM [19]: 60.7% | growth at 10 µM (MDA-MB-435): 55% | growth at 10 µM (Malme-3M [20]): 66.9% | growth at 10 µM [21]: 60.9% | growth at 10 µM (SN12C): 50.8% | growth at 10 µM [22]: 40.4%

Cc1cc(=O)oc2c(C)c(O)c(-c3cc4ccc(F)cc4[nH]3)cc12
GI50 (A549): 3.82 µM | TGI (A549): 15 µM | CC50 (A549): 58.4 µM | GI50 [1]: 0.95 µM | TGI [1]: 4.17 µM | CC50 [1]: 29.9 µM | GI50 (NCI-H226): 3.34 µM | TGI (NCI-H226): 22.1 µM | CC50 (NCI-H226): > 100 µM | GI50 (NCI-H23 [2]): 2.07 µM | TGI (NCI-H23 [2]): 8.99 µM | CC50 (NCI-H23 [2]): 75.3 µM | GI50 (NCI-H460): 2.82 µM | TGI (NCI-H460): 10.5 µM | CC50 (NCI-H460): 66.6 µM | GI50 [3]: 3.49 µM | TGI [3]: 13.5 µM | CC50 [3]: 39.9 µM | GI50 (HT-29): 10.2 µM | TGI (HT-29): 23 µM | CC50 (HT-29): 52 µM | GI50 [4]: 3.42 µM | TGI [4]: 15 µM | CC50 [4]: 83.3 µM | CC50 [5]: > 100 µM | GI50 (Malme-3M [6]): 1.95 µM | TGI (Malme-3M [6]): 7.32 µM | CC50 (Malme-3M [6]): 50.2 µM | GI50 (M14): 3.29 µM | TGI (M14): 12.7 µM | CC50 (M14): 36.7 µM | GI50 (SK-MEL-2): 3.12 µM | TGI (SK-MEL-2): 7.34 µM | CC50 (SK-MEL-2): 41.5 µM | GI50 (SK-MEL-5): 1.65 µM | TGI (SK-MEL-5): 4.46 µM | CC50 (SK-MEL-5): 14.5 µM | GI50 [7]: 2.3 µM | TGI [7]: 13.7 µM | CC50 [7]: 62.8 µM | GI50 [8]: 2.28 µM | TGI [8]: 7.02 µM | CC50 [8]: 37.5 µM | GI50 [9]: 2.64 µM | TGI [9]: 10 µM | CC50 [9]: > 100 µM | GI50 (MCF7): 2.57 µM | TGI (MCF7): 16.2 µM | CC50 (MCF7): > 100 µM | GI50 (T47D): 2.39 µM | TGI (T47D): 22.1 µM | CC50 (T47D): > 100 µM | GI50 [10]: 2.64 µM | TGI [10]: 9.71 µM | CC50 [10]: 30.8 µM | GI50 [11]: 3.08 µM | TGI [11]: 17.2 µM | CC50 [11]: 73.6 µM | GI50 [12]: 2.94 µM | TGI [12]: 10.8 µM | CC50 [12]: 43.1 µM | GI50 [13]: 3.09 µM | TGI [13]: 14.2 µM | CC50 [13]: > 100 µM | growth at 10 µM (K562): 26.7% | growth at 10 µM [14]: 26% | growth at 10 µM [15]: 36.5% | growth at 10 µM [16]: 27.9% | growth at 10 µM (EKVX): 53.3% | growth at 10 µM (NCI-H23 [17]): 10.2% | growth at 10 µM [18]: 68.8% | growth at 10 µM (U-251): 27.9% | growth at 10 µM [19]: 47.3% | growth at 10 µM (MDA-MB-435): 32.4% | growth at 10 µM (Malme-3M [20]): 31.9% | growth at 10 µM [21]: 33.2% | growth at 10 µM (SN12C): 35.1% | growth at 10 µM [22]: 41.2%
